Patent US8188080B2 (Sanford-Burnham Medical Research Institute, priority 2007, dated 2012)
Where two headings read alike, the source gives them in different places.

Columns and labels:
VHR [1] = biological target: T1, VHR (Homo sapiens, UniProt P51452); experiment: Inhibition constant and inhibition pattern (Lineweaver-Burk plot); format: biochemical; details: FIG. 1
Protocol: Using the same format and buffer system as for […] measurements, the enzyme was preincubated with various fixed concentrations of inhibitors for 10 minutes. The reaction was initiated by addition of various concentrations of DiFMUP (ranging from 0.2 to 10 km) to the reaction mixture. The initial rate was determined using a FLx800 micro plate reader (Bio-Tek Instruments, Inc.), and exitation wave length of 360 nm and measuring the emission of the fluorescent reaction product DiFMU at 460 nm. The nonenzymatic hydrolysis of the substrate was corrected by measuring the control without addition of enzyme. The inhibition constant and inhibition pattern was evaluated by fitting the data to the Michaelis-Menten equations for either competitive, uncompetitive or mixed inhibition, using nonlinear regression and the program GraphPad Prism™.

VHR [2] = biological target: T1, VHR; experiment: PTP-catalyzed hydrolysis of DiFMUP, IC50 determination (VHR); format: biochemical; details: read-out: IC50
Protocol: The PTP-catalyzed hydrolysis of 6,8-difluoro-4-methylumbelliferyl phosphate (DiFMUP) in the presence of the test compound is assayed at 30° C. in a 60 μL 96 well format reaction system in 0.15 M Bis-Tris, pH 6.0 assay buffer having an ionic strength of 150 mM (adjusted with NaCl) and containing 1 mM dithiotreitol and 5% DMSO. At various concentrations of the compound, the initial rate at fixed DiFMUP concentration (equal to the corresponding Km value for each PTP) was determined using a FLx800 micro plate reader (Bio-Tek Instruments, Inc.), an excitation wave length of 360 nm and measuring the emission of the fluorescent reaction product 6,8-difluoro-7-hydroxy-4-methylcoumarin (DiFMU) at 460 nm. The nonenzymatic hydrolysis of the substrate was corrected by measuring the control without addition of enzyme. The IC50 value was determined by plotting the relative activity versus inhibitor concentrations and fitting to Equation 1 using the software GraphPad Prism™ (GraphPad Software, Inc.).
[formula] In this case, Vi, is the reaction velocity when the inhibitor concentration is [I], V0 is the reaction velocity with no inhibitor and IC50=Ki+Ki[S]/Km.

Ball-1 cells = details: in vitro, arrest at G1/S transition; cited from earlier work
HIV-1 protease = HIV-1 protease (Human immunodeficiency virus type 1 group M subtype B, UniProt P04585); details: cited from earlier work
heparanase = biological target: T2, heparanase (Homo sapiens, UniProt Q9Y251); details: cited from earlier work
T2 sequence (Q9Y251 158-543 limits assumed): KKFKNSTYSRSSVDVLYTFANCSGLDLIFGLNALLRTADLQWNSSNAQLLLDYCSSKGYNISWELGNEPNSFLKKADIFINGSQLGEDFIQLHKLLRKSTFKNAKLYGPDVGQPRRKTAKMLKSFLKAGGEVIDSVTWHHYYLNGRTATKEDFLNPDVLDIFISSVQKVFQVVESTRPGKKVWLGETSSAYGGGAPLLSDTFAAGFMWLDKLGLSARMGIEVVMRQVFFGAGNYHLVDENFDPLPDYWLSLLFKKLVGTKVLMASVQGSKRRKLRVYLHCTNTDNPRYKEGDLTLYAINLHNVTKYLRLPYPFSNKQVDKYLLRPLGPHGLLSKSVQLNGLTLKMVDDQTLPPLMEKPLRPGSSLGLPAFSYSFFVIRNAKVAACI
T2 sequence (Q9Y251 36-109 partner limits assumed): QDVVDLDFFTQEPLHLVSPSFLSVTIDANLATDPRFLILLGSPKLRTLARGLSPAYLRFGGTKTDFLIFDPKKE

phospholipase A2 = details: cited from earlier work

T1 sequence (P51452 whole entry): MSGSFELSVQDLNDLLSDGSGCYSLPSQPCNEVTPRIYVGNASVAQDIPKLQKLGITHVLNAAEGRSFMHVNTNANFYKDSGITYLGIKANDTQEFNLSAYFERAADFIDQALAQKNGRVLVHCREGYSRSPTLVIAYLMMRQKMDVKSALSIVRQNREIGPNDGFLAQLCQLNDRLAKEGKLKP

Compound: O=C1/C(=C/C=C/c2ccccc2)SC(=S)N1CCS(=O)(=O)O [2-[(Z)-4-oxo-5-((E)-3-phenylallylidene)-2-thioxothiazolidin-3-yl]ethane-sulfonic acid]
- inhibition pattern of VHR (VHR [1]): competitive inhibition

Compound: CCOc1cc(/C=C2\SC(=S)N(CCS(=O)(=O)O)C2=O)ccc1O [Compound 1, (Z)-2-[5-(3-Ethoxy-4-hydroxybenzylidene)-4-oxo-2-thioxothiazolidin-3-yl)ethansulfonic acid]
- IC50 (VHR [2]): 50 µM

Compound: O=C1/C(=C/c2ccc(Cl)cc2Cl)SC(=S)N1CCS(=O)(=O)O [Compound 2, (Z)-2-[5-(2,4-Dichlorobenzylidene)-4-oxo-2-thioxothiazolidin-3-yl)ethansulfonic acid]
- IC50 (VHR [2]): 9.81 µM

Compound: O=C(CN1C(=O)C(/C=C2\SC(=S)N(CCS(=O)(=O)O)C2=O)c2ccccc21)Nc1ccc(F)cc1 (stereo not drawn) [Compound 4]
- IC50 (VHR [2]): 12 µM

Compound: CCCCCCCCCCCCCCCC(=O)C1=C(O)C(CO)OC1=O (stereo not drawn) [RK-682]
- cell cycle progression (Ball-1 cells): inhibited cell cycle progression
- HIV-1 protease inhibition (HIV-1 protease): HIV-1 protease inhibition
- heparanase inhibition (heparanase): heparanase inhibition
- phospholipase A2 inhibition (phospholipase A2): phospholipase A2 inhibition

Compound: (Z)-2-[5-(5-bromo-1-methyl-2-oxoindolin-3-ylidene)-4-oxo-2-thioxothiazolindin-3-yl]ethanesulfonic acid [Compound 3]
- IC50 (VHR [2]; Table I, DiFMUP at Km, pH 6.0, 30° C.): 32.6 µM
